Measurements taken from publication PMC8373237 (Antimicrobial Agents and Chemotherapy, 2021).
Converted amounts (≈) assume the structure as drawn. “And” between values parts separate entries of the source, which are not always exact repeats. Equal values may be shown once. Read-outs that look alike come from different tables or passages of the source. Marks after values point to notes of the source that are not given here. Square brackets hold non-standard residues; d marks the D form. Peptide text beside a SMILES is read from it. Nphe = O=C(O)CNCc1ccccc1; NPrGly = CCCNCC(=O)O

Legend:
[1] = tested on: Y. pseudotuberculosis Ysc T3SS (YopE secretion); assay type: cell-based, Yersinia pseudotuberculosis
[2] = tested on: Salmonella T3SS genes (hilA, hilD, invF, sipC, sipA, fliC); test: mRNA quantification by qPCR of T3SS genes; assay type: cell-based, Salmonella enterica Typhimurium; conditions: 9 µM, 2 h and 4 h
Method: Samples were taken after 3 h of induction. Overnight Salmonella cultures were subcultured into fresh LB with 0.3 M NaCl at 37°C in the presence of 9 μM 4EpDN, 4EpDN 2Sar, or equivalent DMSO. Samples were taken after 2 h and 4 h of induction. Samples were stored in RNAprotect reagent (Qiagen) and processed within a week. Total RNA was isolated using an RNAeasy kit (Qiagen) according to the manufacturer’s instructions, followed by two rounds of Turbo DNase (Thermo Fisher scientific) treatment. A total of 2 μg of RNA was used to make cDNA, and quantitative PCRs (qPCRs) were run with SYBR green PCR master mix (Applied Biosystems). DNA helicase (dnaB) and 16S rRNA genes were used as a reference for P. aeruginosa and Salmonella samples, respectively. Two to three technical replicates were averaged for each sample. Results were analyzed using Bio-Rad CFX software.

[3] = tested on: HeLa cells; test: Cytological profiling (CP); assay type: cell-based; conditions: concentration used in Chlamydia infection
Method: Briefly, HeLa cells were cultured and seeded into 384-well plates at 2,500 cells/well. After 48 h, compounds were added using a Janus MDT robot (PerkinElmer). Two stain sets were used—stain set 1, Hoechst, EdUrhodamine, anti-phosphohistone H3, and GM130; stain set 2, Hoechst, fluorescein isothiocyanate (FITC)-alpha tubulin, rhodamine-phalloidin, and calnexin. For stain set 1, cells were incubated with 20 μM EdUrhodamine for 1 h prior to fixing in 4% formaldehyde solution in PBS for 20 min. Cells were then washed with PBS and permeabilized with 0.5% Triton X-100 in PBS for 10 min before blocking with 2% BSA in PBS solution for at least 1 h. Following this, cells were incubated with primary antibodies overnight at 4°C. The following day, excess primary antibody was washed off with PBS and Alexa-488, and Alexa-647 secondary antibodies and Hoechst solution were incubated for 1 h. Plates were washed with PBS and preserved with 0.1% sodium azide in PBS solution prior to imaging. For stain set 2, cells were fixed with a 4% formaldehyde solution in PBS for 20 min. Cells were then washed with PBS and permeabilized with 0.5% Triton X-100 in PBS for 10 min before blocking with 2% BSA in PBS solution for at least 1 h. Following this, cells were incubated with primary antibodies overnight at 4°C. […]

[4] = tested on: Salmonella flagellar T3SS (FliC, FliD secretion); assay type: cell-based, Salmonella enterica Typhimurium; design: key to Fla fliC (Table 2): NE: No effect observed
[5] = tested on: P. aeruginosa PA103 T3SS (ExoU secretion); assay type: cell-based, Pseudomonas aeruginosa
[6] = tested on: C. trachomatis serovar L2 in HeLa cells; test: Chlamydia infection of HeLa cells (primary and secondary infection); assay type: cell-based, Chlamydia trachomatis
Method: Primary infections. HeLa cell monolayers were infected with C. trachomatis serovar L2 at a multiplicity of infection (MOI) of 1.0 in the presence of one of the following compounds at 9 μM: DMSO, 4EpDN, or 4EpDN 2Sar. Cells were incubated for 24 h in the presence of the above-listed compounds at 37°C and then fixed with 4% paraformaldehyde (PFA). Cells were stained for IncA (Chlamydia inclusion membrane marker), DNA (with DAPI), and MOMP (Chlamydia major outer membrane protein) simultaneously. This method of staining allows visualization of the inclusion independent of MOMP synthesis or transport. The percentage of cells infected (i.e., stained positively for the listed Chlamydia markers) in the presence of the compounds was quantified using confocal microscopy. Quantifications of inclusion take into account both DAPI staining and indirect immunofluoresence with an antibody to MOMP. Ten randomly selected fields of view were measured per experiment. The data represent three biological replicates.
Secondary infections. HeLa cell monolayers were infected with C. trachomatis serovar L2 at an MOI of 1.0 in the presence of one of the following compounds at 9 μM: DMSO, 4EpDN, or 4EpDN 2Sar. Cells were incubated for 48 h in the presence of the above-listed compounds at 37°C. Infected cells were then lysed, and the lysate was applied to fresh HeLa monolayers to enumerate infectious particles. These secondary infections were fixed in 4% PFA at 24 hpi and were stained against MOMP and DNA. The infectious units per ml (IFU/ml) were calculated by averaging the number of infected cells in each of 10 randomly selected fields of view at ×40 magnification on a confocal microscope and multiplying this by the appropriate dilution and area factors. The data represent four biological replicates.

[7] = tested on: Salmonella enterica Typhimurium SPI-1 T3SS (SipA, SipC secretion); assay type: cell-based
[8] = tested on: Y. pseudotuberculosis twin arginine translocation (Tat) system; assay type: cell-based, Yersinia pseudotuberculosis; conditions: culture optical density, 4 and 6 h
[9] = tested on: P. aeruginosa PA103 T3SS (ExsE secretion); assay type: cell-based, Pseudomonas aeruginosa
[10] = tested on: P. aeruginosa (PAO1); assay type: cell-based, Pseudomonas aeruginosa
[11] = Kinetic solubility; assay type: physicochemical
Method: […] Then, […] of 15 mM stock compound was added to make a solution of 120 μM final concentration with 0.8% DMSO. The solution was shaken at 37°C for ∼2 h. The solution was passed over a 0.7- μM glass fiber filter. Then, the solution was diluted 1:4 in acetonitrile to crash out any proteins. The solution was centrifuged at 500 × g for 10 min. Avoiding the pellet, 10 μl of supernatant was added to a fresh plate with 90 μl of acetonitrile. The final dilution is 40 times lower. Next, 10 μl of 40× dilution of solution was injected on the Orbi-trap. A 1 μM standard was used for the ratiometric comparison, and the assay was done in triplicate.

[12] = tested on: Y. pseudotuberculosis; assay type: cell-based, Yersinia pseudotuberculosis; conditions: 2xYT, 9-120 µM, 12 h
[13] = tested on: Y. enterocolitica Ysa T3SS (YspF secretion); assay type: cell-based, Yersinia enterocolitica
[14] = tested on: flagella (Fla), fliC; design: key: NE: No effect observed; conditions: ref [102]; cited from earlier work
[15] = tested on: Salmonella enterica Typhimurium SPI-1 T3SS; conditions: culture-based secretion assay; ref [102]; read-out: IC50, SipC secretion; cited from earlier work

Structure (SMILES): CCCN1CC(=O)N(Cc2ccccc2)CC(=O)N[C@@H](CC(C)C)C(=O)N[C@@H]([C@@H](C)CC)C(=O)N[C@H](CC(C)C)C(=O)N[C@H](Cc2ccccc2)C1=O [4EpDN, 4-EpD1,2N] (cyclo(I[dL][dF][NPrGly][Nphe]L))
- lowest known inhibitory concentration (∼), YopE secretion ([1]; Table 2, Ysc, culture-based secretion assay): ∼7.5 YopE^b μM
- T3SS effector secretion inhibited, fold ([1]; same concentration as YscF staining (60 μM)): 4 fold
- expression of T3SS genes (qPCR), in words [2]: nor did it impact T3SS gene transcription
- changes to actin cytoskeleton, Golgi network, endoplasmic reticulum, microtubule network [3]: did not show any gross changes
- Fla fliC (Table 2) [4]: NE^d
- concentration inhibiting FliC secretion [4]: ≥ 60 µM
- fold more potent than its parental compound [5]: 2 fold
- inhibition of ExoU secretion ([5]; 9 µM): ~75%
- inhibition of ExoU secretion ([5]; 60 µM): ~75%
- IC50 ([5]; read-out: IC50, inhibition of secretion of T3SS effector ExoU): 3.9 µM
- inhibition of formation of infectious progeny ([6]; 9 μM, EBs collected at 48 hpi, fresh monolayers 24 h): ~98%
- decrease of primary inclusion formation ([6]; 9 μM, HeLa cells, 24 hpi): ~50%
- lowest known inhibitory concentration (∼), cell-based infection assay, Chlamydia ([6]; Table 2, Chlamydiales): ∼9^c μM
- IC50 ([7]; read-out: IC50, SipAC secretion (SPI-1 T3SS)): 1 µM
- IC50 ([7]; read-out: IC50, SipC secretion): ~1 µM and ~0.8 µM
- growth of SufI-β-lactamase Tat reporter bacteria in penicillin G / Tat inhibition, in words [8]: does not inhibit the Tat secretion system
- inhibition of ExsE secretion ([9]; 9 µM): did not significantly inhibit
- inhibition of ExsE secretion ([9]; 60 µM): ~40%
- bacterial viability in broth culture [10]: did not affect bacterial viability
- solubility kinetic [11]: 13 µM (≈ 9.53 µg/mL)
- solubility ([11]; DMEM (no antibiotics)): 12 µM (≈ 8.8 µg/mL)
- solubility ([11]; M9): 10 µM (≈ 7.33 µg/mL)
- bacterial viability in broth culture [12]: did not affect bacterial viability
- IC50 [13]: 16.1 µM
- secretion of YspF, in words [13]: inhibited secretion of YspF in a dose-dependent manner

Structure (SMILES): CCCCCCCC(=O)c1c(O)cc(O)cc1CC(=O)OCC [Cytosporone B]
- Fla fliC [14]: NE^d
- IC50 [15]: 6.25 µM
